Assay results from patent US12458572B2, “Homogeneous liquid composition comprising 1,2-octanediol and use thereof” (Minasolve SAS, priority 2020, dated 2025).
Read-outs that look alike come from different tables or passages of the source.

How the values were obtained:
[1] = log POW, n-octanol/water partition coefficient, OECD Test No. 117; type: physicochemical
Method: The partition coefficient between n-octanol and water, also called ‘log POW’ and performed according to OECD Test No. 117 at 25° C., of 1,2-octanediol is 2.1. […] A specialist trained in the art could therefore expect that a mixture of water, 1,2-octanediol and hydrophilic short chain alkanediols and/or alkanetriols would form a hydrophilic phase containing water, and a separate lipophilic phase containing 1,2-octanediol.
The miscibility of 1,2-octanediol with C3-C4 alkanediols is well-known. However, comparably large amounts of these diols are needed for lowering the melting point of 1,2-octanediol below 15° C. Furthermore, C3-C4 polyols are highly hydrophilic components with a log POW of ≤0, as detailed in the following table (Table 1).

[2] = Solubility in 1,2-octanediol; type: physicochemical
Method: The solubility of water in 1,2-octanediol exceeds 30% at 40° C. However, mixtures of 1,2-octanediol with water tend to form highly viscous gels at ambient temperature which are hard to handle.
Glycerol, with glycerine and 1,2,3-trihydroxypropane as well-known alternative names, is a C3 alkanetriol. The solubility of glycerol in 1,2-octanediol exceeds 30%. However, mixtures of 1,2-octanediol and glycerol tend to be highly viscous and might separate at low temperatures. Furthermore, the addition of high amounts of glycerol to skin care formulations may cause a sticky skin-feel.

Row | Structure (SMILES) | log POW (25° C.) ([1]; OECD Test No. 117 at 25° C.) | log POW (25° C.) [1] | solubility of glycerol in 1,2-octanediol [2]
1 | CC(O)CCO (stereo not shown) [1,3-butanediol] | −0.92 |  | 
2 | CCC(O)CO (stereo not shown) [1,2-butanediol] | −0.59 |  | 
3 | CCCCCCC(O)CO (stereo not shown) [1,2-octanediol] | 2.1 |  | 
4 | CC(O)C(C)O (stereo not shown) [2,3-butanediol] |  | −0.92 | 
5 | CC(O)CO (stereo not shown) [1,2-propanediol] |  | 1.07 | 
6 | OCCCCO [1,4-butanediol] |  | −0.88 | 
7 | OCCCO [1,3-propanediol] | 0.71 |  | 
8 | CC(CO)CO [2-methyl-1,3-propanediol] | −0.6 |  | 
9 | OCC(O)CO [1,2,3-trihydroxypropane] |  | −1.75 | exceeds 30%
